Laboratory results taken from US3961041A, “Effervescent enteric coated L-dopa formulation and method of using the same” (priority 1974, dated 1976).

Legend:
[1] = cited from earlier work
Parkinson's Disease = conditions: in vivo, po; cited from earlier work
[2] = Absorption of L-DOPA from the gastrointestinal tract (inventors' experimentation); assay type: in vivo
From the text: As for (1), it has been confirmed that the decomposition of L-DOPA in the stomach is remarkable as shown in numerous reports in the past.
As a result, optimum absorption of the drug is totally incomplete.

decarboxylase enzymes = conditions: cited from earlier work
[3] = dopamine as metabolite; cited from earlier work

In the case of `N[C@@H](Cc1ccc(O)c(O)c1)C(=O)O` [L-DOPA, 3,4-dihydroxy-L-phenylalanine], the “decomposition in the stomach” value ([1]; in vivo) is given as “remarkable”, the “stability in the gastrointestinal tract, especially in the stomach” value ([1]; in vivo) is given as “unstable” and the “absorption from the gastrointestinal tract (prior art reason)” value ([1]; oral) is given as “poorly absorbed”. For the same molecule, the “side effects when massive dosing is administered” value (Parkinson's Disease) was “marked side effects”, the “absorption from the gastrointestinal tract” value ([2]; in vivo) was “almost completely absorbed” and the optimum absorption site ([2]; in vivo) was “small intestine, especially in the upper part thereof”. For the same molecule, the “absorption, oral as compared to intravenous” value ([2]; oral vs intravenous) was “not appreciably different” and the “decarboxylation via decarboxylase enzymes in the intestine” value (decarboxylase enzymes) was “apt to undergo decarboxylation”.

In the case of `NCCc1ccc(O)c(O)c1` [dopamine], the “therapeutic effect in the treatment of Parkinson's Disease” value [3] is listed as “does not have any therapeutic effect”.
